Laboratory results taken from patent US20020132793A1, “Use of methylphenidate compounds to enhance memory” (priority 2000, published 2002).

Experiments:
[1] = tested on: IA memory in the rat; assay: Inhibitory Avoidance (IA) task in normal rats; type: in vivo; settings: for retention on the IA task: FIG. 1
Protocol: An exemplary passive avoidance test utilizes an apparatus that consists of a lit chamber that can be separated from a dark chamber by a sliding door. At training, the animal is placed in the lit chamber for some period of time, and the door is opened. The animal moves to the dark chamber after a short delay—the latency—that is recorded. Upon entry into the dark chamber, the door is shut closed and a foot shock is delivered. Retention of the experience is determined after various time intervals, e.g., 24 or 48 hours, by repeating the test and recording the latency. The protocol is one of many variants of the passive avoidance procedures (for review, see Rush (1988) Behav Neural Biol 50:255).
The Inhibitory Avoidance (IA) task is a well-studied behavioral paradigm which can provide the researcher with a consistent and long-lasting measure of memory. The paradigm consists of one training trial and one retention trial. Test articles may be administered to the rats either before or after training. Improved memory, as a result of test compound administration, is evident as increased latency on the retention trial. The objective of the following experiments was to investigate the effects of methylphenidate on IA memory in the rat.
In this experiment, rats were injected with three different doses of methylphenidate thirty minutes prior to training on the IA task.
Rats were injected with 5 mg/kg of methylphenidate and trained on the IA task.
In this experiment, the time of drug administration was varied in order to determine the optimal pre-training drug administration time.
This experiment was conducted in order to determine whether the enhanced retention observed in Experiment 2 was long-lasting. Rats received a second retention test one week after the first retention test. No additional training or drug was administered to the animals in the interim period.
In the next experiment, we investigated whether the performance of amnesic rats could be improved by administration of methylphenidate. In this experiment, control rats and rats with lesions of the fornix received injections of either saline or methylphenidate (5 mg/kg), and one hour later, were tested on the IA task.
Different doses of l-threo methylphenidate were administered to rats one hour prior to training on the Inhibitory Avoidance task. Retention for the task was tested 24 hours later. […] This experiment was subsequently replicated using a target dose of 5 mg/kg.
The effects of d-threo methylphenidate on memory consolidation as tested by the Inhibitory Avoidance task were also evaluated. Different doses of d-threo were administered to rats one hour prior to training on the Inhibitory Avoidance task.

[2] = tested on: locomotor activity; assay: Activity monitoring task (locomotor activity levels)
Protocol: The effects of d-threo methylphenidate on locomotor activity was investigated by injecting rats with saline or 2.5 mg/kg of d-threo methylphenidate, and testing them one hour later on the activity monitoring task.
In order to investigate the effects of l-threo methylphenidate on activity levels, rats were injected with 5 mg/kg of l-threo methylphenidate, and underwent activity monitoring one hour later.

[3] = tested on: rats with lesions of the fornix; assay: Inhibitory Avoidance (IA) task in rats with lesions of the fornix; type: in vivo, rat; settings: 5 mg/kg, one hour before
[4] = cited from earlier work
[5] = tested on: attention and learning; assay: Brief Visuospatial Memory Test in healthy human volunteers; type: in vivo
From the text: (§1) The primary objective of the study is to identify the MTD and dose-limiting side-effects of l-threo methylphenidate hydrochloride. The secondary objectives included:
(§2) This was a randomised, double-blind, placebo-controlled, study including eight healthy male/female subjects. There were five treatment periods, each comprising two treatment days, with a 5-day washout period between dose levels. Subjects received four ascending doses of drug (a split dose on the first day of the treatment period and half the dose on the second day of the treatment period) and placebo. The placebo dose was randomly assigned to one of the five treatment periods. Each dose was taken orally.
(§3) The first dose level was administered on Day 1 and Day 2. After a 5-day washout period, subjects received the next dose level for 2 days. The period of washout and dose escalation was repeated until all five dose levels (four active dose levels and one placebo) were administered. Safety and tolerability was assessed after each treatment period to determine if subjects may advance to the next dose level.
Higher BVMT score indicates increased attention and learning.

[6] = tested on: memory retention; assay: Providence Recognition Memory Test (Pictoral) in healthy human volunteers; type: in vivo; settings: PRMT (ascending) and RAVLT (descending) experiments together
From the text: as §1, §2, §3
Patients were assessed using the Providence Recognition Memory Test (Pictoral). Higher PRMT score indicates increased memory retention. […] This study was performed on Decending Plasma Curve of l-threo-methylphenidate. Higher RAVLT score indicates increased memory retention.

[7] = 2.5 mg/kg, tested one hour later, vs saline
[8] = 5 mg/kg, one hour later, vs saline

COC(=O)[C@H](c1ccccc1)[C@H]1CCCCN1 [d-threo methylphenidate, D-threo-methylphenidate]
memory consolidation in the Inhibitory Avoidance task, dose finding ([1]; 2.5 mg/kg one hour prior to training, FIG. 6): appears to be effective in improving memory | memory in the Inhibitory Avoidance task, replication ([1]; 2.5 mg/kg, t(85)=2.403, p<0.0184, FIG. 7): significant memory enhancing effects | number of movements [2, 7]: No significant main effects | number of stereotyped activities [2, 7]: No significant main effects | total distance moved [2, 7]: No significant main effects | number of rears ([2]; 2.5 mg/kg, tested one hour later, vs saline, F(1, 70)=19.60, p<0.0234): Significant main effects | movement time ([2]; 2.5 mg/kg, tested one hour later, vs saline, F(1, 70)=1304, p<0.0001): Significant main effects | rest time ([2]; 2.5 mg/kg, tested one hour later, vs saline, F(1, 70)=1322, p<0.0001): Significant main effects | hyperactivity (locomotor activity) ([2]; 2.5 mg/kg, tested one hour later, vs saline, FIG. 9): did not produce a large amount of hyperactivity

COC(=O)C(c1ccccc1)C1CCCCN1 (racemic) [methylphenidate, methyl α-phenyl-2-piperidineacetate]
retention on the IA task ([1]; 5 mg/kg injected thirty minutes prior to training): improved retention | performance of normal rats on the IA task ([1]; 5 mg/kg, one hour before, FIG. 3): dramatically enhanced | performance of normal rats vs all other experimental groups (Student-Newman-Keuls post hoc) ([1]; 5 mg/kg, one hour before, p<0.05): significantly enhanced relative to all other experimental groups | optimal pre-training drug administration time ([1]; 5 mg/kg, time of drug administration varied): most effective when administered to the rats one hour prior to training | retention of the IA task, second experiment ([1]; 5 mg/kg, unpaired t-test p<0.03, FIG. 2): significantly improved retention | retention on the IA task ([1]; 10 mg/kg injected thirty minutes prior to training): no effect | retention on the IA task ([1]; 15 mg/kg injected thirty minutes prior to training): no effect | performance at second retention test (long-term retention) ([1]; one week after the first retention test, no additional training or drug, t(54)=2.358, p<0.0220): still significantly enhanced | performance of the fornix lesion rats on the IA task ([3]; FIG. 3): appeared to improve | performance of fornix animals vs normal, saline injected animals ([3]; post hoc test): not significantly different from normal, saline injected animals | half-life ([4]; in adults): 2 to 3 h | time to excretion after dosing ([4]; in adults): 48 to 96 h

COC(=O)[C@@H](c1ccccc1)[C@@H]1CCCCN1 [l-threo methylphenidate, L-threo-methylphenidate]
performance on the Inhibitory Avoidance task, dose finding ([1]; 5 mg/kg one hour prior to training, retention tested 24 hours later, FIG. 4): appeared to be effective in enhancing performance | performance of the Inhibitory Avoidance task, replication ([1]; 5 mg/kg one hour prior to training, t(59)=2.686, p<0.0094, FIG. 5): significantly enhanced performance | activity levels compared to saline injected controls ([2]; 5 mg/kg, activity monitoring one hour later, FIG. 8): did not result in greatly increased activity levels | locomotor hyperactivity, overall ([2]; 5 mg/kg, one hour later): does not appear to result in serious locomotor hyperactivity | number of movements [2, 8]: no significant difference | number of stereotyped activities [2, 8]: no significant difference | total distance moved [2, 8]: no significant difference | number of rears ([2]; 5 mg/kg, one hour later, vs saline, F(1, 70)=74.26, p<0.0001): small, but statistically significant main effects | movement time ([2]; 5 mg/kg, one hour later, vs saline, F(1, 70)=728, p<0.0033): small, but statistically significant main effects | time spent resting ([2]; 5 mg/kg, one hour later, vs saline, F(1, 70)=730.6, p<0.0032): small, but statistically significant main effects | enhancement of attention and learning by portion of the plasma curve ([5]; BVMT): more effective during the ascending portion of the plasma curve | attention and learning, BVMT score ([5]; ascending blood concentration, oral, healthy volunteers, FIG. 14): can enhance attention and learning in patients | memory enhancement, ascending vs descending portion of the plasma curve [6]: more effective during the ascending portion of the plasma curve | half-life relative to dl-threo methylphenidate ([4]; strong evidence): even shorter half-life
